The test system of one experiment is HCT116 WT cells. Briefly: HCT116 WT (parent) cell line proliferation / cell viability (CellTiter-Glo, 6 days). The class given is cell-based. Particulars: Homo sapiens, HCT-116, 144 h, 6 days treatment. In short, it runs like this:
(§1)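 CellTiter-Glo luminescence read after 6 days of compound exposure in parental and MTAP-null HCT116 cells grown in RPMI 1640/10% FBS. Dilution series: 1:3 steps, 8–9 points, top 1 or 10 μM; or 1:2 steps, 22 points, top 10 or 50 μM. IC50 = curve transit through 50% of control.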

The subject of the next experiment is HCT116 MTAP null cells. In words: HCT116 MTAP null cell line proliferation / cell viability (CellTiter-Glo, 6 days). The experiment is classed as cell-based. As to conditions: 144 h; HCT116 MTAP null cells, 6 days treatment, CellTiter-Glo cell viability; read-out: HCT-116 MTAP null IC50. In short, it runs like this:
as §1
(ATP-based viability assays read luminescence as a measure of living cells.)

This note sets out measurements from patent publication US20240124442A1, “TRICYCLIC-AMIDO-BICYCLIC PRMT5 INHIBITORS” (AMGEN INC., priority 2021, published 2024).

As usually defined, the IC50 is the point on the concentration scale where inhibition reaches its midpoint.

As to `CN(C(=O)c1cc2c3c(c(N)nc2cc1C#N)COC3)[C@@H]1COc2cc(C(F)(F)F)ccc21` [Example 218, 4-amino-7-cyano-N-methyl-N-((3S)-6-(trifluoromethyl)-2,3-dihydro-1-benzofuran-3-yl)-1,3-dihydrofuro[3,4-c]quin-oline-8-carboxamide], the figures for the half-maximal inhibitory concentration (IC50) in the experiment on HCT116 WT cells and in the experiment with HCT116 MTAP null cells were 838 nM and 13 nM, respectively.

In the case of `CN(C(=O)c1ccc2nc(N)c3c(c2c1)CSC3)[C@@H]1COc2cc(C(F)(F)F)ccc21` [Example 219, 4-amino-N-methyl-N-((3S)-6-(trifluoromethyl)-2,3-dihydro-1-benzofuran-3-yl)-1,3-dihydrothieno[3,4-c]quinoline-8-carboxamide], the IC50 in the experiment on HCT116 WT cells was 2770 nM; with HCT116 MTAP null cells, 105 nM.

For `CN(C(=O)c1ccc2nc(N)c3ccncc3c2c1)[C@@H]1COc2cc(C(F)(F)F)ccc21` [Example 220, 5-amino-N-methyl-N-((3S)-6-(trifluoromethyl)-2,3-dihydro-1-benzofuran-3-yl)-benzo[c][2,6]naphthyridine-9-carboxamide], the IC50 amounted to 432 nM in the experiment on HCT116 WT cells and 18 nM in the experiment on HCT116 MTAP null cells.

`CN(C(=O)c1ccc2nc(N)c3ncncc3c2c1)[C@@H]1COc2cc(C(F)(F)F)ccc21` [Example 221, 5-amino-N-methyl-N-((3S)-6-(trifluoromethyl)-2,3-dihydro-1-benzofuran-3-yl)pyrimido-[4,5-c]quinoline-9-carboxamide]: the results for the IC50 with HCT116 WT cells and with HCT116 MTAP null cells were 4290 nM and 590 nM, respectively.

With `Cc1nccc2c(N)nc3ccc(C(=O)N(C)[C@@H]4COc5cc(C(F)(F)F)ccc54)cc3c12` [Example 222, 5-amino-N,1-dimethyl-N-((3S)-6-(trifluoromethyl)-2,3-dihydro-1-benzofuran-3-yl)benzo[c][2,6]-naphthyridine-9-carboxamide], the IC50 in the experiment on HCT116 WT cells was determined as 3910 nM; in the experiment with HCT116 MTAP null cells, 280 nM.

For the compound `CN(C(=O)c1cc2c(cn1)nc(N)c1ccncc12)[C@@H]1COc2cc(C(F)(F)F)ccc21` [Example 223, 5-amino-N-methyl-N-((3S)-6-(trifluoromethyl)-2,3-dihydro-1-benzofuran-3-yl)pyrido[4,3-c][1,7]naphthyridine-9-carboxamide], the IC50 was 437 nM with HCT116 WT cells and 23 nM in the experiment with HCT116 MTAP null cells.

As for `CN(C(=O)c1cc2c(cn1)nc(N)c1ncncc12)[C@@H]1COc2cc(C(F)(F)F)ccc21` [Example 224, 5-amino-N-methyl-N-((3S)-6-(trifluoromethyl)-2,3-dihydro-1-benzofuran-3-yl)pyrimido-[4,5-c][1,7]naphthyridine-9-carboxamide], the values for the half-maximal inhibitory concentration (IC50) with HCT116 WT cells and in the experiment with HCT116 MTAP null cells were 3600 nM and 424 nM, respectively.

In the case of `Cc1noc2c1c(N)nc1cc(F)c(C(=O)N(C)[C@@H]3COc4cc(C(F)(F)F)ccc43)cc12` [Example 225, 4-amino-7-fluoro-N,3-dimeth-yl-N-((3S)-6-(trifluoromethyl)-2,3-dihydro-1-benzofuran-3-yl)[1,2]oxazolo[4,5-c]quin-oline-8-carboxamide], the IC50 with HCT116 WT cells was 4940 nM; with HCT116 MTAP null cells it was 403 nM.

Regarding `CN(C(=O)c1ccc2nc(N)c3cnn(C)c3c2c1)[C@@H]1COc2cc(C(F)(F)F)ncc21` [Example 227, 4-amino-N,1-dimethyl-N-((3S)-6-(trifluoromethyl)-2,3-dihydrofuro[3,2-c]pyridin-3-yl)-1H-pyrazolo[4,3-c]-quinoline-8-carboxamide], the results for the IC50 in the experiment on HCT116 WT cells and in the experiment on HCT116 MTAP null cells were 1480 nM and 19 nM, respectively.

For the compound `CCN(C(=O)c1ccc2nc(N)c3cnn(C)c3c2c1)[C@H]1COc2cc(C(F)(F)F)ccc21` [Example 229, 4-amino-N-ethyl-1-methyl-N-((3R)-6-(trifluoromethyl)-2,3-dihydro-1-benzofuran-3-yl)-1H-pyrazolo[4,3-c]quinoline-8-carboxamide], the IC50 with HCT116 WT cells came out at 7740 nM; in the experiment with HCT116 MTAP null cells, 265 nM.

For the compound `CN(C(=O)c1ccc2nc(N)c3cnn(C)c3c2c1)[C@@H]1COc2cc(OC(F)(F)F)ccc21` [Example 230, 4-amino-N,1-dimethyl-N-((3S)-6-(trifluoromethoxy)-2,3-dihydro-1-benzofuran-3-yl)-1H-pyrazolo[4,3-c]quinoline-8-carboxamide], the results for the IC50 in the experiment on HCT116 WT cells and in the experiment with HCT116 MTAP null cells were 530 nM and 7 nM, respectively.

Turning to `CN(C(=O)c1ccc2nc(N)c3cnn(C)c3c2c1)[C@@H]1COc2cc(C(F)(F)F)cc(Cl)c21` [Example 231, 4-amino-N-((3S)-4-chloro-6-(trifluoromethyl)-2,3-dihydro-1-benzofuran-3-yl)-N,1-dimethyl-1H-pyrazolo[4,3-c]-quinoline-8-carboxamide], the 50% inhibitory concentration (IC50) in the experiment with HCT116 WT cells was 2060 nM; in the experiment with HCT116 MTAP null cells it was 215 nM.

On to `CN(C(=O)c1ccc2nc(N)c3cnn(C)c3c2c1)[C@H]1COc2cc(C(F)(F)F)cc(Cl)c21` [Example 232, 4-amino-N-((3R)-4-chloro-6-(trifluoromethyl)-2,3-dihydro-1-benzofuran-3-yl)-N,1-dimethyl-1H-pyrazolo[4,3-c]-quinoline-8-carboxamide], for which the IC50 in the experiment with HCT116 WT cells was found to be 2490 nM; in the experiment on HCT116 MTAP null cells it was 222 nM.

As to `CN(C(=O)c1ccc2nc(N)c3cnn(C)c3c2c1)[C@@H]1COc2cc(Br)ccc21` [Example 234, 4-amino-N-((3S)-6-bromo-2,3-dihydro-1-benzofuran-3-yl)-N,1-dimethyl-1H-pyrazolo[4,3-c]quinoline-8-carboxamide], the values for the IC50 in the experiment with HCT116 WT cells and in the experiment on HCT116 MTAP null cells were 613 nM and 8 nM, respectively.

Turning to `CN(C(=O)c1ccc2nc(N)c3cnn(C)c3c2c1)[C@@H]1COc2cc(Br)cnc21` [Example 235, 4-amino-N-((3S)-6-bromo-2,3-dihydrofuro[3,2-b]pyridin-3-yl)-N,1-dimethyl-1H-pyrazolo[4,3-c]quinoline-8-carboxamide], the IC50 in the experiment with HCT116 WT cells was determined as 10000 nM; in the experiment on HCT116 MTAP null cells it was 219 nM.

As to `CN(C(=O)c1ccc2nc(N)c3cnn(C)c3c2c1)[C@H]1COc2cc(Br)cnc21` [Example 236, 4-amino-N-((3R)-6-bromo-2,3-dihydrofuro[3,2-b]pyridin-3-yl)-N,1-dimethyl-1H-pyrazolo[4,3-c]quinoline-8-carboxamide], the 50% inhibitory concentration (IC50) in the experiment with HCT116 WT cells was determined as 24200 nM; with HCT116 MTAP null cells it was 786 nM.

Turning to `CN(C(=O)c1cc2c(cn1)nc(N)c1cnn(C)c12)[C@@H]1COc2cc(C(F)(F)F)ccc21` [Example 237, 4-amino-N,1-dimethyl-N-((3S)-6-(trifluoromethyl)-2,3-dihydro-1-benzofuran-3-yl)-1H-pyr-azolo[4,3-c][1,7]naphthyridine-8-carboxamide], the concentration for half-maximal inhibition (IC50) in the experiment with HCT116 WT cells was 192 nM; in the experiment with HCT116 MTAP null cells, 12 nM.

For `CN(C(=O)c1cc2c(cn1)nc(N)c1cnn(C)c12)[C@@H]1COc2cc(OC(F)(F)F)ccc21` [Example 239, 4-amino-N,1-dimethyl-N-((3S)-6-(trifluoromethoxy)-2,3-dihydro-1-benzofuran-3-yl)-1H-pyrazolo[4,3-c][1,7]-naphthyridine-8-carboxamide], the IC50 with HCT116 WT cells was found to be 168 nM; in the experiment on HCT116 MTAP null cells, 10 nM.

`CN(C(=O)c1cc2c(cn1)nc(N)c1cnn(C)c12)[C@@H]1COc2cc(S(F)(F)(F)(F)F)ccc21` [Example 240, 4-amino-N,1-dimethyl-N-((3S)-6-(pentafluoro-lambda~6~-sulfanyl)-2,3-dihydro-1-benzofuran-3-yl)-1H-pyrazolo[4,3-c][1,7]naph-thyridine-8-carboxamide]: the values for the IC50 in the experiment with HCT116 WT cells and with HCT116 MTAP null cells were 250 nM and 13 nM, respectively.

For the compound `CN(C(=O)c1cc2c(cn1)nc(N)c1cnn(C)c12)[C@@H]1COc2cc(-c3cnn(C(F)(F)F)c3)ccc21` [Example 241, 4-amino-N,1-dimethyl-N-((3S)-6-(1-(trifluoromethyl)-1H-pyrazol-4-yl)-2,3-dihydro-1-benzofuran-3-yl)-1H-pyr-azolo[4,3-c][1,7]naphthyridine-8-carboxamide], the IC50 came to 388 nM in the experiment with HCT116 WT cells and 9 nM with HCT116 MTAP null cells.

Turning to `CCN(C(=O)c1cc2c(cc1F)nc(N)c1cnn(C)c12)[C@@H]1COc2cc(C(F)(F)F)ccc21` [Example 243, 4-amino-N-ethyl-7-fluoro-1-methyl-N-((3S)-6-(trifluoro-methyl)-2,3-dihydro-1-benzo-furan-3-yl)-1H-pyrazolo[4,3-c]-quinoline-8-carboxamide], the half-inhibitory concentration (IC50) with HCT116 WT cells was determined as 82 nM; with HCT116 MTAP null cells, 9 nM.

On to `CCN(C(=O)c1cc2c(cc1F)nc(N)c1cnn(C)c12)[C@H]1COc2cc(C(F)(F)F)ccc21` [Example 244, 4-amino-N-ethyl-7-fluoro-1-methyl-N-((3R)-6-(trifluoro-methyl)-2,3-dihydro-1-benzo-furan-3-yl)-1H-pyrazolo[4,3-c]quinoline-8-carboxamide], for which the IC50 with HCT116 WT cells came out at 7440 nM; in the experiment with HCT116 MTAP null cells it was 182 nM.

As to `CN(C(=O)c1cc2c(cc1F)nc(N)c1cnn(C)c12)[C@@H]1COc2cc(-c3cnn(C(F)(F)F)c3)ccc21` [Example 247, 4-amino-7-fluoro-N,1-dimethyl-N-((3S)-6-(1-(trifluoromethyl)-1H-pyrazol-4-yl)-2,3-dihydro-1-benzofuran-3-yl)-1H-pyrazolo[4,3-c]quinoline-8-carboxamide], the results for the half-maximal inhibitory concentration (IC50) in the experiment on HCT116 WT cells and with HCT116 MTAP null cells were 304 nM and 5 nM, respectively.

For `CN(C(=O)c1cc2c(cc1Cl)nc(N)c1cnn(C)c12)[C@@H]1COc2cc(-c3cnn(C(F)(F)F)c3)ccc21` [Example 249, 4-amino-7-chloro-N,1-dimethyl-N-((3S)-6-(1-(trifluoromethyl)-1H-pyrazol-4-yl)-2,3-dihydro-1-benzo-furan-3-yl)-1H-pyrazolo[4,3-c]quinoline-8-carboxamide], the IC50 came out at 66 nM with HCT116 WT cells and 3 nM in the experiment with HCT116 MTAP null cells.

Take `Cc1cc2nc(N)c3cnn(C)c3c2cc1C(=O)N(C)[C@@H]1COc2cc(C(F)(F)F)ccc21` [Example 250, 4-amino-N,1,7-trimethyl-N-((3S)-6-(trifluoromethyl)-2,3-dihydro-1-benzofuran-3-yl)-1H-pyrazolo[4,3-c]quinoline-8-carboxamide]: the IC50 in the experiment on HCT116 WT cells is 46 nM; in the experiment with HCT116 MTAP null cells, 2 nM.
